This is an account of results in article PMC7998669, “7-(2-Anilinopyrimidin-4-yl)-1-benzazepin-2-ones Designed by a “Cut and Glue” Strategy Are Dual Aurora A/VEGF-R Kinase Inhibitors” (Molecules, 2021).

Converted amounts (≈) assume the structure as drawn.

Broadly, the IC50 is the concentration at which inhibition is half-maximal. The term remaining activity denotes the signal under treatment as a percentage of the control signal. As a reminder, the solubility (kinetic) is the concentration staying in solution when a stock, usually in DMSO, is diluted into the medium.

The target of one series is T1, Aurora-A (Homo sapiens, UniProt O14965).
T1 construct: host or cells: Sf9 (baculovirus)
T1 sequence (O14965 1-403): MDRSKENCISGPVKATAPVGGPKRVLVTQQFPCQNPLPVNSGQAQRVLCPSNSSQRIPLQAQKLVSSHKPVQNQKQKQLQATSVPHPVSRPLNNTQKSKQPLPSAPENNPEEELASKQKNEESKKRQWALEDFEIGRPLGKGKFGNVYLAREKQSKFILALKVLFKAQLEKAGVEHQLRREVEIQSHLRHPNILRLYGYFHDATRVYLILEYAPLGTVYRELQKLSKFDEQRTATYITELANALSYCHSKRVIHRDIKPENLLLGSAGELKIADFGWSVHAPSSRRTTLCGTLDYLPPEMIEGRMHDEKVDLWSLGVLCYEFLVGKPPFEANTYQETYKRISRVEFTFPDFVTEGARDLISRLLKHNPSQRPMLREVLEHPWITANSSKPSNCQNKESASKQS
Nature of the series: radiometric 33PanQinase protein kinase assay. In kind it is biochemical. Particulars: for IC50: radiometric assay, 1 µM ATP; for remaining activity at 10 µM: 10 µM compound, residual kinase activity. On the procedure: (§1) The inhibitory activity of prototype 2a was determined in a panel of 24 tumor-relevant protein kinases using a radiometric assay. Only the kinases Aurora A, VEGF-R2 and VEGF-R3 were inhibited with single digit micromolar IC50 values (Table 2). Structural modifications were then implemented, particularly directed to improve inhibition of Aurora A. The so-designed congeners with small substituents at the aniline ring 2b–2n were examined for inhibition of Aurora A and of VEGF-R2, VEGF-R3 and Aurora B for comparison (Table 3).
(§2) The screening for protein kinase inhibition was performed with the radiometric ^33Panqinase activity assay at Reaction Biology Europe GmbH (Freiburg) using a robotic system (Beckmann Coulter/SagianRoboter) and 96-well plates (FlashPlates, Perkin/Elmer/NEN, Boston, MA, USA). In brief, the transfer of ^33P-phosphate into the substrate was measured with a microplate scintillation counter (Microbeta Trilux, Wallace). Protein kinases were expressed in Sf9 cells as recombinant glutathione S-transferase (GST) or polyhistidine (His)-tagged proteins in baculovirus. Isolation and purification of expressed kinases were performed with affinity chromatography by using GSH agarose (Sigma) or Ni-NTA agarose (Qiagen). The standard solution for each enzyme contained: 60 mM HEPES-NaOH (pH 7.5), 3 mM MgCl2, 3 µM sodium orthovanadate, 1.2 mM DTT, 50 µg/mL PEG20000 and 1 µM [γ-^33P]-ATP (approximately 5 × 10^5 cpm per well). In chronological order the reaction mixture was prepared: 20 µL standard solution, 5 µL ATP solution in water, 5 µL of the compound in 10% DMSO and 20 µL of enzyme/substrate mixture (50:50). Each kinase contained different substrates in different concentrations: 125 ng/50 µL Poly(Glu, Tyr)4:1 for 20 ng/50 µL IGF1-R, 25 ng/50 µL IGF1-R, 20 ng/50 µL EGF-R, 25 ng/50 µL EGF-R, 40 ng/50 µL EGF-R, 10 ng/50 µL EPHB4, 20 ng/50 µL EPHB4, 200 ng/50 µL ERBB2, 10 ng/50 µL SRC, 100 ng/50 µL FAK, 200 ng/50 µL FAK, 50 ng/50 µL VEGF-R2, 100 ng/50 µL VEGF-R3, 200 ng/50 µLTIE2; 250 ng/50 µL Poly(Glu, Tyr)4:1 for 200 ng/50 µL TIE2; 500 ng/50 µL tetra (LRRWSLG) for 50 ng/50 µL Aurora-A, 25 ng/50 µL PAK4, 25 ng/50 µL PDK1; 250 ng/50 µL tetra (LRRWSLG) for 50 ng/50 µL Aurora-B, 200 ng/50 µL Aurora-B; 125 ng/50 µL Histon H1 for 100 ng/50 µL CDK2/CycA; 250 ng/50 µL Rb-CTF for 50 ng/50 µL CDK/CycD1; 500 ng/50 µL Rb-CTF for 50 ng/50 µL CDK4/CycD1; 125 ng/50 µL Poly(ala, Glu, Lys, Tyr)6:2:5:1 for 25 ng/50 µL INS-R, 50 ng/50 µL PDGFR-beta, 100 ng/50 µL PDGFR-beta, 100 ng/50 µL FLT3, 150 ng/50 µL FLT3, 20 ng/50 µL MET, 50 ng/50 µL MET, 100 ng/50 µL MET; 250 ng/50 µL Casein for 200 ng/50 µL CK2-alpha1, 200 ng/50 µL PLK1; 1000 ng/50 µL Casein for 200 ng/50 µL PLK1, 200 ng/50 µL CK2-alpha1; 1000 ng/50 µLGSK3 (14–27) for 100 ng/50 µL AKT1; 125 ng/50 µL p53-CTM for 150 ng/50 µL CK2-alpha1, 200 ng/50 µLCK2-alpha1; 250 ng/50 µL MEK-KM for 20 ng/50 µL B-RAF-VE; autophosphorylation at ARK5, COT and SAK. After incubation (80 min, 30 °C) the reaction was stopped by adding 50 µL 2% (v/v) phosphoric acid to the reaction mixture. The microplate was washed twice with 200 µL 0.9% (v/v) saturated sodium chloride or water. The measured radioactivity, conditioned by the incorporation of [γ-^33P]-phosphate, is proportional to kinase activity. Furthermore, low control and high control were measured to determine the residual activity (%). As low controls, mixtures with substrate, but without enzyme were used to determine the unspecific binding of [γ-^33P]-phosphate to the well plate. Mixtures with enzyme, but without inhibitor were used as high controls to determine maximum enzyme activity. The IC50-values of the distinct compounds were calculated with Quattro Workflow V1.1.0.8 (Quattro Research GmbH, München, Germany). Dose response curves were generated by measurement of the residual activity of ten different inhibitor concentrations (0.1 mM, 30.0 µM, 10 µM, 3.0 µM, 1.0 µM, 0.3 µM, 0.1 µM, 30.0 nM, 10.0 nM and 3.0 nM). […]

In another series the target is T2, Aurora-B (Homo sapiens, UniProt Q96GD4).
T2 construct: host or cells: Sf9 (baculovirus)
T2 sequence (Q96GD4 whole entry): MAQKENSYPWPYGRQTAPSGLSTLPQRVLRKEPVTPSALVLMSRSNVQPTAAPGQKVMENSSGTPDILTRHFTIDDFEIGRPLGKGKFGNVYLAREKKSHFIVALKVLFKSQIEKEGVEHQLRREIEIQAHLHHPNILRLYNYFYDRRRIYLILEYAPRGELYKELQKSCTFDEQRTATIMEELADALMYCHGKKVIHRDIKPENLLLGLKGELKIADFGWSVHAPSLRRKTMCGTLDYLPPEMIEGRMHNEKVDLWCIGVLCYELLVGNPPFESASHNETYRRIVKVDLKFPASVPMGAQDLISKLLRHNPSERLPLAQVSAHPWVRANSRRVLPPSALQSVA
As to the kind of experiment: radiometric 33PanQinase protein kinase assay. Particulars: for IC50: radiometric assay, 1 µM ATP; for remaining activity at 10 µM: 10 µM compound, residual kinase activity. In kind it is biochemical. On the procedure:
as §1, §2

The next series deals with T3, VEGF-R2 (Homo sapiens, UniProt P35968).
T3 construct: host or cells: Sf9 (baculovirus)
T3 sequence (P35968 20-1356): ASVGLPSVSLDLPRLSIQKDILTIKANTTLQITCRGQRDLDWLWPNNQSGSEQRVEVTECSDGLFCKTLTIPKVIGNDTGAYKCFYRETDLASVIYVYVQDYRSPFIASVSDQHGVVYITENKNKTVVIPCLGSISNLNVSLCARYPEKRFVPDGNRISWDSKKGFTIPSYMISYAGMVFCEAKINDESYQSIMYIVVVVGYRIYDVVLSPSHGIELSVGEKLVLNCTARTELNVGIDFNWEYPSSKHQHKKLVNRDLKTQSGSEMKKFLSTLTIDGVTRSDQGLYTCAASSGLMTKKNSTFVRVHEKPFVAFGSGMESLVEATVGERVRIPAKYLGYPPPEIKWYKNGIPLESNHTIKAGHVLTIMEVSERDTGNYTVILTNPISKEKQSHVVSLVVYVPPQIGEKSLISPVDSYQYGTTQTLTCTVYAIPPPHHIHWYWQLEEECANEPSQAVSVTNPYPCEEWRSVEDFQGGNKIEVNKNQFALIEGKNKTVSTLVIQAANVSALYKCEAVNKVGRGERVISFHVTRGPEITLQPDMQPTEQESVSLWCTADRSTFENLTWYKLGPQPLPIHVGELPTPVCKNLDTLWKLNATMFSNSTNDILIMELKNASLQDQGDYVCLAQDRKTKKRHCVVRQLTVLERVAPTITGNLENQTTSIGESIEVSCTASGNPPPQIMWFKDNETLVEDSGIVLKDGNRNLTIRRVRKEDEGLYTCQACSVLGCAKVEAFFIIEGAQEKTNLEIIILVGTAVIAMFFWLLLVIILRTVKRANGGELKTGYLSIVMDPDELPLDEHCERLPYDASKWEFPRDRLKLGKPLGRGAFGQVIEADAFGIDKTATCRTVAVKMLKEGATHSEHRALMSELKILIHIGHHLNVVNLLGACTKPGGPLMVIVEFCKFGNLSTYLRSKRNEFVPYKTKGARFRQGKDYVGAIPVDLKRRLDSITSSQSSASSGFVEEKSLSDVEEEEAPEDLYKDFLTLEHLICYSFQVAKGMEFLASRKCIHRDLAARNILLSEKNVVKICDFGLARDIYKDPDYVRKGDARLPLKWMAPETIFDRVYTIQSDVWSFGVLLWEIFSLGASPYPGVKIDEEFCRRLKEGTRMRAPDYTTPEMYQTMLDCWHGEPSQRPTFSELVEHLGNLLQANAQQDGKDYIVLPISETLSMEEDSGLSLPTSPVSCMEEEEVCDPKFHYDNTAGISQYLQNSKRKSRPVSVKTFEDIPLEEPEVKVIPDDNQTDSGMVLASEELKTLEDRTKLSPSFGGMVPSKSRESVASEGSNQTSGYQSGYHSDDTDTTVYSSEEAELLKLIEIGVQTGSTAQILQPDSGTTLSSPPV
Nature of the series: radiometric 33PanQinase protein kinase assay. Format: biochemical. Conditions: for IC50: radiometric assay, 1 µM ATP; for remaining activity at 10 µM: 10 µM compound, residual kinase activity. The protocol: as §1, §2

A further series concerns the target T4, VEGF-R3 (Homo sapiens, UniProt P35916).
T4 construct: host or cells: Sf9 (baculovirus)
As to the kind of experiment: radiometric 33PanQinase protein kinase assay. In kind it is biochemical. Conditions: for IC50: radiometric assay, 1 µM ATP; for remaining activity at 10 µM: 10 µM compound, residual kinase activity. On the procedure:
as §1, §2

Series [1] is described as follows: kinetic solubility by nephelometry. Format: physicochemical. Particulars: phosphate buffer, 25 °C, pH 7.4, aqueous buffer, kinetic from dmso stock, phosphate buffer pH 7.4, 1% DMSO, mean of two measurements, range in brackets. The protocol: The kinetic solubility of test compounds was determined by nephelometry. Dilution series of test compounds in DMSO with eight to ten different concentrations were prepared. The dilutions were pipetted (2 µL) into the cavities of a 96 well plate (CorningTM UV-transparent flat-bottom microtiter plate; Corning Incorporated, Kennebunk, ME, USA). A phosphate buffer solution pH 7.4 (198 µL) was added, so that the DMSO concentration in the measured solutions was 1%. Three wells were filled with DMSO and phosphate buffer pH 7.4 (2:198) and measured as blank values. The 96 well plate prepared in this way was measured with the NEPHELOstar® Plus nephelometer (BMG Labtech GmbH, Ortenberg, Germany, software: Omega 5.11) at a temperature of 25 °C. Previously, the plate was shaken at 500 rpm for 10 s and the laser intensity was set to 80%. The beam focus was set to 2.50 mm. If the test substance is completely soluble, only a scattering close to the blank value is detected. As soon as a critical concentration is reached in which the kinetic solubility of the test compound is exceeded, solid particles precipitate. Undissolved particles in the sample scatter the laser beam. The intensity of the scattered light is determined, which is proportional to the number of particles in the solution. The blank values were determined and subtracted from the measured values of the test compounds. By measuring different concentrations of the test substances, different intensities of the scattered light, indicated as RNU (relative nephelometric units), were determined. Kick off curves were obtained by plotting concentrations against the RNU values. The point of intersection of the horizontal and of the ascending part of the kick-off curve indicated the kinetic solubility concentration.

T4 sequence (P35916 25-1363): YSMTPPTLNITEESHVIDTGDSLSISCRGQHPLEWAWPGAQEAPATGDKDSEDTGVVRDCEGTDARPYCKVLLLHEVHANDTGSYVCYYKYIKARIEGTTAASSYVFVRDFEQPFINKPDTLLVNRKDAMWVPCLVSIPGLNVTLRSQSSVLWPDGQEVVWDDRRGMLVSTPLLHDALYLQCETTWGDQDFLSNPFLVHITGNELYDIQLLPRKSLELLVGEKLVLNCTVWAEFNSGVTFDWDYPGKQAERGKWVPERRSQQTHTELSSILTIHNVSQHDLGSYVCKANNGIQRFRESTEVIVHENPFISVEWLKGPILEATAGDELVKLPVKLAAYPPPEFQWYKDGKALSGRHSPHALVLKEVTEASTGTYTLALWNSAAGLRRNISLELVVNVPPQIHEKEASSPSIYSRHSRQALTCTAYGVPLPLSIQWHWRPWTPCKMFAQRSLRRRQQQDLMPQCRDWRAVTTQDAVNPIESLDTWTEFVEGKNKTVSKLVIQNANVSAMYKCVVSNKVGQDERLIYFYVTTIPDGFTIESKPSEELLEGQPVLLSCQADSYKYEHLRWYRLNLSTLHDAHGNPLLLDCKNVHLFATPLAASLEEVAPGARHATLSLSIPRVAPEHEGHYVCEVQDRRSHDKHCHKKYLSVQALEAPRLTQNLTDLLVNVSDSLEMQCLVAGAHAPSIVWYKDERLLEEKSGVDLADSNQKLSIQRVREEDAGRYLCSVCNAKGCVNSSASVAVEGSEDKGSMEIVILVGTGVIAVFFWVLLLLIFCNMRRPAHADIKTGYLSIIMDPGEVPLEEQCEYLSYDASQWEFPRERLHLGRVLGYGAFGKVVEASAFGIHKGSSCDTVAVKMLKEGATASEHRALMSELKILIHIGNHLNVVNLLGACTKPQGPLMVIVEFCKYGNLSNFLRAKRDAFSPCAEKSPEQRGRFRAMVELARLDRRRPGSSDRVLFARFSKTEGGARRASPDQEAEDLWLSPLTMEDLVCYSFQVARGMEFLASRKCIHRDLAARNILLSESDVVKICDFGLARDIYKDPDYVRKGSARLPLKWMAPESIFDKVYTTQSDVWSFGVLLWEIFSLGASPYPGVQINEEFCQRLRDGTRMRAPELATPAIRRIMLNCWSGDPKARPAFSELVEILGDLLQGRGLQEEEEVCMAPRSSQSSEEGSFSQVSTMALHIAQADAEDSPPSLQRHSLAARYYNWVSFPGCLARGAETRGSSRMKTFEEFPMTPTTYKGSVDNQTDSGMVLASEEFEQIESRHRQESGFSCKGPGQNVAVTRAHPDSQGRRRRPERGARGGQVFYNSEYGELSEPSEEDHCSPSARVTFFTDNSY

Regarding `Cc1ccc(Nc2nccc(-c3ccc4c(c3)CCCC(=O)N4)n2)cc1` [Compound 2b, 7-[2-(4-Toluidino)pyrimidin-4-yl]-1,3,4,5-tetrahydro-2H-1-benzazepin-2-one], the IC50 on Aurora-A turned out to be 2.4 µM; against Aurora-B, 16 µM; against VEGF-R2 it was 1.8 µM; at VEGF-R3, 4.3 µM.
Taken in the same sequence, the figures for `COc1ccc(Nc2nccc(-c3ccc4c(c3)CCCC(=O)N4)n2)cc1` [Compound 2c, 7-[2-(4-Methoxyanilino)pyrimidin-4-yl]-1,3,4,5-tetrahydro-2H-1-benzazepin-2-one] were 1.8 µM, 18 µM, 1.3 µM and 2.5 µM.
The like results for `CCOc1ccc(Nc2nccc(-c3ccc4c(c3)CCCC(=O)N4)n2)cc1` [Compound 2d, 7-[2-(4-Ethoxyanilino)pyrimidin-4-yl]-1,3,4,5-tetrahydro-2H-1-benzazepin-2-one] were, in that order, 1.5 µM, 20 µM, 2 µM and 3 µM.
`O=C1CCCc2cc(-c3ccnc(Nc4ccc(Cl)cc4)n3)ccc2N1` [Compound 2f, 7-[2-(4-Chloroanilino)pyrimidin-4-yl]-1,3,4,5-tetrahydro-2H-1-benzazepin-2-one]: the IC50 against Aurora-A stood at 9.4 µM; against Aurora-B it was 40 µM; on VEGF-R2, 11 µM; against VEGF-R3, 19 µM.
In the case of `O=C1CCCc2cc(-c3ccnc(Nc4ccc(Br)cc4)n3)ccc2N1` [Compound 2g, 7-[2-(4-Bromoanilino)pyrimidin-4-yl]-1,3,4,5-tetrahydro-2H-1-benzazepin-2-one], the IC50 was found to be 3.5 µM on Aurora-A, 18 µM on Aurora-B, 5.4 µM against VEGF-R2 and 4.1 µM at VEGF-R3.
Take `O=C1CCCc2cc(-c3ccnc(Nc4ccc(I)cc4)n3)ccc2N1` [Compound 2h, 7-[2-(4-Iodoanilino)pyrimidin-4-yl]-1,3,4,5-tetrahydro-2H-1-benzazepin-2-one]: the IC50 came out at 3.5 µM against Aurora-A, 52 µM against Aurora-B, 17 µM against VEGF-R2 and 6.2 µM against VEGF-R3.
The like results for `O=C1CCCc2cc(-c3ccnc(Nc4ccc([N+](=O)[O-])cc4)n3)ccc2N1` [Compound 2i, 7-[2-(4-Nitroanilino)pyrimidin-4-yl]-1,3,4,5-tetrahydro-2H-1-benzazepin-2-one] were, in that order, above 100 µM, above 100 µM, 11 µM and 35 µM.
In the case of `O=C1CCCc2cc(-c3ccnc(Nc4ccccc4O)n3)ccc2N1` [Compound 2j, 7-[2-(2-Hydroxyanilino)pyrimidin-4-yl]-1,3,4,5-tetrahydro-2H-1-benzazepin-2-one], the IC50 is above 100 µM at Aurora-A, above 100 µM against Aurora-B, 8.4 µM against VEGF-R2 and 19 µM at VEGF-R3.
For the compound `O=C1CCCc2cc(-c3ccnc(Nc4ccccc4Cl)n3)ccc2N1` [Compound 2k, 7-[2-(2-Chloroanilino)pyrimidin-4-yl]-1,3,4,5-tetrahydro-2H-1-benzazepin-2-one], the remaining activity at 10 µM on Aurora-A was found to be 74%; at Aurora-B, 87%; on VEGF-R2 it was 74%; on VEGF-R3, 72%.
As to `O=C1CCCc2cc(-c3ccnc(Nc4ccccc4Br)n3)ccc2N1` [Compound 2l, 7-[2-(2-Bromoanilino)pyrimidin-4-yl]-1,3,4,5-tetrahydro-2H-1-benzazepin-2-one], the remaining activity at 10 µM is 73% at Aurora-A, 116% on Aurora-B, 78% at VEGF-R2 and 64% on VEGF-R3.
In turn, `CN1CCN(CCCOc2cccc(Nc3nccc(-c4ccc5c(c4)CCCC(=O)N5)n3)c2)S1(=O)=O` [Compound 14a, 7-{2-[(3-(3-(5-Methyl-1,1-dioxido-1,2,5-thiadiazolidin-2-yl)propoxy)phenyl)amino]pyrimidin-4-yl}-1,3,4,5-tetrahydro-2H-benzo[b]azepin-2-one] gave an IC50 on Aurora-A of 1.8 µM. In addition, the solubility (kinetic) at 10 s in series [1] was 25.3 µM (≈ 13.2 µg/mL).
In the case of `O=C1CCCc2cc(-c3ccnc(Nc4cccc(OCCCNS(=O)(=O)N5CCOCC5)c4)n3)ccc2N1` [Compound 14b, N-{3-[3-((4-(2-Oxo-2,3,4,5-tetrahydro-1H-benzo[b]azepin-7-yl)pyrimidin-2-yl)amino)phenoxy]-propyl}morpholine-4-sulfonamide], at Aurora-A, the IC50 came out at 3 µM. In addition, the kinetic solubility at 10 s in series [1] stood at 19.6 µM (≈ 10.8 µg/mL).
